This is an account of results in patent US10258603B2 (priority 2014, dated 2019).

The term IC50 denotes the concentration at which inhibition is half-maximal. A higher IC50 goes with lower potency.

In the first experiment the target is T1, BRD9 (Homo sapiens, UniProt Q9H8M2).
T1 construct: 134-239 was cloned, expressed, and purified to homogeneity; Flag; made in house
T1 sequence (Q9H8M2 134-239 limits assumed): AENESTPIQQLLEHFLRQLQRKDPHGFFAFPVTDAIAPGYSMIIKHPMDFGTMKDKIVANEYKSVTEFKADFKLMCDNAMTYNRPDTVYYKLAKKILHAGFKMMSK
Nature of the experiment: BRD9 AlphaLisa Binding Assay.
Conditions: not given
As to the method:
IC50 Measurements for Inhibitors Using BRD9 AlphaLisa Binding Assay His/Flag epitope tagged BRD9134-239 was cloned, expressed, and purified to homogeneity. […] After 20 minutes incubation at room temperature AlphaLisa Streptavidin Acceptor Beads (Perkin-A[…]) and AlphaLisa Nickel donor beads (Perkin AS 10 ID) were added to a final concentration of 15 ug/mL each.
Compound `CN(C)CCNC(=O)c1cn(C)c(=O)c2[nH]ccc12` [Example 1, N-(2-dimethylaminoethyl)-6-methyl-7-oxo-1H-pyrrolo[2,3-c]pyridine-4-carboxamide] came in with an IC50 of 3000 nM. That is a single-digit micromolar value.

In turn, `CN1CCC(CNC(=O)c2cn(C)c(=O)c3[nH]ccc23)CC1` [Example 3, 6-methyl-N-[(1-methyl-4-piperidyl)methyl]-7-oxo-1H-pyrrolo[2,3-c]pyridine-4-carboxamide] had an IC50 of 3500 nM.

`Cn1cc(C(=O)NCCN2CCCCC2)c2cc[nH]c2c1=O` [Example 5, 6-methyl-7-oxo-N-[2-(1-piperidyl)ethyl]-1H-pyrrolo[2,3-c]pyridine-4-carboxamide] showed an IC50 of 790 nM.

Turning to `CN1CCC(NC(=O)c2cn(C)c(=O)c3[nH]ccc23)C1` (stereo not shown) [Example 6, 6-methyl-N-(1-methylpyrrolidin-3-yl)-7-oxo-1H-pyrrolo[2,3-c]pyridine-4-carboxamide], the IC50 amounted to 1500 nM.

The target of another experiment is T2, TAF1-BD2 (Homo sapiens, UniProt P21675).
T2 sequence (P21675 1525-1656): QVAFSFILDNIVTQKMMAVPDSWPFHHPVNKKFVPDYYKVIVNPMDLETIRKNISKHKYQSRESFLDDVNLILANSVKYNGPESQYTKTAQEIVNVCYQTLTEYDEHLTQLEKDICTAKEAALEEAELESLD
Description: TAF1-BD2 TR-FRET Binding Assay. As to conditions: Assay: TAF-1. On the technique in general: In TR-FRET formats the signal depends on donor and acceptor labels being close together.
Description: Specifically, in a 384 well ProxiPlate TAF1-BD2 (6 nM final) was combined with biotin-ligand (50 nM final) in 50 mM HEPES (pH 7.5), 50 mM NaCl, 1 mM TCEP, 0.01% (w/v) BSA, and 0.008% (w/v) Brij-35 either in the presence of DMSO (final 0.2% DMSO) or compound dilution series in DMSO. After 10 minutes incubation at room temperature, a mixture Eu-W1024 Anti-6×His antibody (Perkin Elmer AD0110) and SureLight™ Allophycocyanin-Streptavidin (APC-SA, Perkin Elmer CR130-100) were added to a final concentrations of 0.2 nMolar antibody and 25 nMolar APC-SA, respectively. After twenty minutes of equilibration, the plates were read on an Envision instrument and IC50s calculated using a four parameter non-linear curve fit.
On to `Cn1cc(C(=O)NCC2CN(C(=O)OC(C)(C)C)C2)c2cc[nH]c2c1=O` [Example 130], for which the IC50 stood at 1200 nM.

Consider `Cn1cc(C(=O)NCC2CCN(C(=O)OC(C)(C)C)CC2)c2cc[nH]c2c1=O` [Example 133], for which the IC50 is 850 nM.

In turn, `Cn1cc(C(=O)NCC2CCCN(C(=O)OC(C)(C)C)C2)c2cc[nH]c2c1=O` (stereo not shown) [Example 135] gave an IC50 of 1300 nM. Against the preceding compound, the IC50 is about 1.5-fold higher.

In the case of `Cn1cc(C(=O)NCC2CCN(C(=O)OC(C)(C)C)C2)c2cc[nH]c2c1=O` (stereo not shown) [Example 137], the IC50 stood at 510 nM. This IC50 lies about 2.5-fold lower than the previous one.

In turn, `Cn1cc(C(=O)NC2CCN(c3ccncn3)CC2)c2cc[nH]c2c1=O` [Example 148, 6-methyl-7-oxo-N-(1-pyrimidin-4-yl-4-piperidyl)-1H-pyrrolo[2,3-c]pyridine-4-carboxamide] returned an IC50 of 440 nM.

`Cc1cnc(N2CCC(NC(=O)c3cn(C)c(=O)c4[nH]ccc34)CC2)nc1` [Example 149, 6-methyl-N-[1-(5-methylpyrimidin-2-yl)-4-piperidyl]-7-oxo-1H-pyrrolo[2,3-c]pyridine-4-carboxamide] showed an IC50 of 320 nM.

As for `Cc1ccnc(N2CCC(NC(=O)c3cn(C)c(=O)c4[nH]ccc34)CC2)n1` [Example 150, 6-methyl-N-[1-(4-methylpyrimidin-2-yl)-4-piperidyl]-7-oxo-1H-pyrrolo[2,3-c]pyridine-4-carboxamide], the IC50 was 360 nM. This IC50 and that of the compound before are within 1.5-fold of each other.

The compound `Cn1cc(C(=O)NC2CCN(c3cnccn3)CC2)c2cc[nH]c2c1=O` [Example 151, 6-methyl-7-oxo-N-(1-pyrazin-2-yl-4-piperidyl)-1H-pyrrolo[2,3-c]pyridine-4-carboxamide] gave an IC50 of 550 nM.

`Cn1cc(C(=O)NC2CCN(c3ncc(C#N)cn3)CC2)c2cc[nH]c2c1=O` [Example 152, N-[1-(5-cyanopyrimidin-2-yl)-4-piperidyl]-6-methyl-7-oxo-1H-pyrrolo[2,3-c]pyridine-4-carboxamide]: the half-maximal inhibitory concentration (IC50) worked out at 570 nM.

On to `Cn1cc(C(=O)NC2CCN(c3nccc(C(F)(F)F)n3)CC2)c2cc[nH]c2c1=O` [Example 153, 6-methyl-7-oxo-N-[1-[4-(trifluoromethyl)pyrimidin-2-yl]-4-piperidyl]-1H-pyrrolo[2,3-c]pyridine-4-carboxamide], for which the IC50 is 490 nM.

In turn, `Cn1cc(C(=O)NC2CCN(c3ncc(F)cn3)CC2)c2cc[nH]c2c1=O` [Example 154, N-[1-(5-fluoropyrimidin-2-yl)-4-piperidyl]-6-methyl-7-oxo-1H-pyrrolo[2,3-c]pyridine-4-carboxamide] returned an IC50 of 530 nM.

Turning to `Cn1cc(C(=O)NC2CCN(c3cccnn3)CC2)c2cc[nH]c2c1=O` [Example 155, 6-methyl-7-oxo-N-(1-pyridazin-3-yl-4-piperidyl)-1H-pyrrolo[2,3-c]pyridine-4-carboxamide], the IC50 was 330 nM.

On to `Cn1cc(C(=O)NC2CCN(c3nccc(C#N)n3)CC2)c2cc[nH]c2c1=O` [Example 156, N-[1-(4-cyanopyrimidin-2-yl)-4-piperidyl]-6-methyl-7-oxo-1H-pyrrolo[2,3-c]pyridine-4-carboxamide], for which the IC50 was 990 nM.

`CN(CC1CCN(c2ncccn2)CC1)C(=O)c1cn(C)c(=O)c2[nH]ccc12` [Example 157, N,6-dimethyl-7-oxo-N-[(1-pyrimidin-2-yl-4-piperidyl)methyl]-1H-pyrrolo[2,3-c]pyridine-4-carboxamide] displayed an IC50 of 1600 nM.

The compound `C=CCn1cc(C(=O)N(C)C2CCN(c3cc(CCC)ncn3)CC2)c2cc[nH]c2c1=O` [Example 166, 6-allyl-N-methyl-7-oxo-N-[1-(6-propylpyrimidin-4-yl)-4-piperidyl]-1H-pyrrolo[2,3-c]pyridine-4-carboxamide] showed an IC50 of 2100 nM.

Take `Cn1cc(C(=O)NC2CCN(c3ccccc3)CC2)c2cc[nH]c2c1=O` [Example 171, 6-methyl-7-oxo-N-(1-phenyl-4-piperidyl)-1H-pyrrolo[2,3-c]pyridine-4-carboxamide]: the IC50 came out at 260 nM.

In the case of `CC(C)c1ccc(N2CCC(N(C)C(=O)c3cn(C)c(=O)c4[nH]ccc34)CC2)cc1` [Example 180, N-[1-(4-isopropylphenyl)-4-piperidyl]-N,6-dimethyl-7-oxo-1H-pyrrolo[2,3-c]pyridine-4-carboxamide], the IC50 stood at 160 nM.

Turning to `COCCN1CCC(CN(C)C(=O)c2cn(C)c(=O)c3[nH]ccc23)CC1` [Example 193], the IC50 was 1600 nM.

Consider `CN(CC1CCN(Cc2cccc(Cl)c2)CC1)C(=O)c1cn(C)c(=O)c2[nH]ccc12` [Example 199], for which the IC50 was 18000 nM.

The compound `CN(CC1CCN(Cc2ccc(Cl)cc2)CC1)C(=O)c1cn(C)c(=O)c2[nH]ccc12` [Example 200, N-[[1-[(4-chloropbenyl)methyl]-4-piperidyl]methyl]-N,6-dimethyl-7-oxo-1H-pyrrolo[2,3-c]pyridine-4-carboxamide] showed an IC50 of 8000 nM.

With `CN1CCC(C)(NC(=O)c2cn(C)c(=O)c3[nH]ccc23)CC1` [Example 210, N-(1,4-dimethyl-4-piperidyl)-6-methyl-7-oxo-1H-pyrrolo[2,3-c]pyridine-4-carboxamide], the IC50 amounted to 5300 nM.

As to `CN(C(=O)c1cn(C)c(=O)c2[nH]ccc12)C1CCN(CC2CCCC2)CC1` [Example 219], the IC50 is 3600 nM.

On to `CC(C)N1CC2C(C1)C2NC(=O)c1cn(C)c(=O)c2[nH]ccc12` (stereo not shown) [Example 228], for which the IC50 was determined as 3300 nM.

`CN(CC1CCN(CC2CCCO2)CC1)C(=O)c1cn(C)c(=O)c2[nH]ccc12` (stereo not shown) [Example 231] had an IC50 of 9900 nM. Compared with the last compound, the IC50 is about 3-fold higher.

The compound `CN(CC1CCN(CC2CCCCO2)CC1)C(=O)c1cn(C)c(=O)c2[nH]ccc12` (stereo not shown) [Example 235] had an IC50 of 9900 nM. This counts as single-digit micromolar.

Turning to `CN(CC1CCN(CC2CCOC2)CC1)C(=O)c1cn(C)c(=O)c2[nH]ccc12` (stereo not shown) [Example 236], the IC50 was 14000 nM.

As to `C=CCn1cc(C(=O)N(C)C2[C@H]3CN(c4nccc(C(F)(F)F)n4)C[C@@H]23)c2cc[nH]c2c1=O` (stereo partly shown) [Example 250], the IC50 stood at 14000 nM.

`CN(C(=O)c1cn(C)c(=O)c2[nH]ccc12)C1CCN(CCc2ccccc2)CC1` [Example 252, N,6-dimethyl-7-oxo-N-(1-phenethyl-4-piperidyl)-1H-pyrrolo[2,3-c]pyridine-4-carboxamide]: the IC50 is 5000 nM.

Regarding `CC(CN1CCC(N(C)C(=O)c2cn(C)c(=O)c3[nH]ccc23)CC1)c1ccccc1` (stereo not shown) [Example 255], the IC50 was 4800 nM.

In turn, “N-cyclopropyl-6-methyl-N-(1-methyl-4-piperidyl)-7-oxo-1H-pyrrolo[2,3-c]pyridine-4-carboxamide [Example 81]” displayed an IC50 of 710 nM.
